Data reported in article PMC5608758, “A brain-targeting lipidated peptide for neutralizing RNA-mediated toxicity in Polyglutamine Diseases” (Scientific Reports, 2017).
Where “and” joins values, the source holds several entries; their conditions need not be identical. Identical values can stand only once. Entries after “also recorded” stand apart in the source; their conditions may differ. Like-named read-outs stand apart in the source and are kept apart here. Residues, ends and D or L forms follow the SMILES beside them. *: point of attachment. Palmitoyl = CCCCCCCCCCCCCCCC(=O)*

Experiments:
[1] = system: EGFP CAG78 RNA-expressing HEK293 cells; type: cell-based; conditions: for suppression of expanded CAG RNA-induced cell death: LDH assay
Description: HEK293 cells were cultured at 37 °C with 5% CO2 in DMEM supplemented with 10% FBS and 1% penicillin-streptomycin. Primary rat cortical neurons were isolated and cultured as previously described. Transient transfection of HEK293 cells was performed using Lipofectamine 2000 (Life Technologies). P3V8 were delivered to HEK293 cells using the DeliverX (DX) Peptide Transfection Kit (Affymetrix) 4 hr after DNA transfection. At least two batches of independently synthesized peptides were used in the experiments.
HEK 293 cells were seeded on a 24-well plate at a density of 0.5 × 10^5, and pEGFP CAG78 DNA construct was used to transfect the cells. […] […] Seventy-two hours after treatment, LDH enzyme activity in the cell culture medium was measured as described before. Experimental groups were normalized to the untransfected control. After normalization, data were analyzed using the dose response-inhibition curve (nonlinear regression-variable slope) to determine the IC50 value (Prism6 software, GraphPad Software, Inc.). Each experiment was repeated at least 3 times.

[2] = system: primary rat cortical neurons; assay: LDH cytotoxicity in primary neurons; type: cell-based; conditions: 0.01 nM to 1 µM, 72 hr; P3V8 transfected with DeliverX; 3 independent experiments
Description: HEK293 cells were cultured at 37 °C with 5% CO2 in DMEM supplemented with 10% FBS and 1% penicillin-streptomycin. Primary rat cortical neurons were isolated and cultured as previously described. Transient transfection of HEK293 cells was performed using Lipofectamine 2000 (Life Technologies). P3V8 were delivered to HEK293 cells using the DeliverX (DX) Peptide Transfection Kit (Affymetrix) 4 hr after DNA transfection. At least two batches of independently synthesized peptides were used in the experiments. […]
cortical neurons. A density of […] of primary rat cortical neurons were seeded on culture […]
and 1000 nM of P3V8 peptide (transfected with DeliverX). The lactate dehydrogenase (LDH) cytotoxicity activity was measured 72 hr post-treatment. Fold change of LDH activity was normalized to untreated cells. Data are expressed as mean ± S.E.M. for 3 independent experiments. NS indicates no significance.
(1 picture or pasted object on this page, not shown here)
The LDH cytotoxicity activity was measured 72 hr post-treatment. Fold change of LDH activity was normalized to untreated cells. Data are expressed as mean ± S.E.M. for 3 independent experiments. NS indicates no significance.

[3] = In vitro stability in rat plasma; type: in vitro ADME; conditions: for remaining at 3 h, 2000 ng/mL: rat; for remaining at 1 h, 500 ng/mL / remaining at 3 h, 1000 ng/mL: LLOQ 12.5 ng/mL P3V8
Description: (§1) Sprague-Dawley (SD) rats (male, 180-200 g) were supplied by the Laboratory Animal Services Centre at The Chinese University of Hong Kong. All animal studies were conducted under the approval of the Animal Ethics Committee of The Chinese University of Hong Kong, and were performed in accordance with relevant guidelines and regulations. Blank rat brain homogenate was prepared by ultrasonic probe homogenization (Micoson XL-2000, Misonix, […], USA) of brains collected from the control rats. Blank rat plasma was prepared by centrifugation (8000 rcf for 3.5 min) of blood collected from control rats. […] The mixtures were incubated at 37 °C with 100 rpm in a water bath for 1 or 3 hr. […] The supernatant was collected for LC/MS/MS analysis.

[4] = In vitro stability in rat brain homogenate; type: in vitro ADME; conditions: for remaining at 1 h, 1000 ng/mL / remaining at 1 h, 2000 ng/mL: incubation 1 hr; for remaining at 1 h, 2000 ng/mL: 100 rpm
Description: as §1

[5] = Plasma pharmacokinetic study in SD rat
Description: SD rats (180–200 g) were anesthetized with an intraperitoneal injection of ketamine (60 mg/kg) and xylazine (6 mg/kg) and received a minor surgery of cannulation with a polythene tube (0.4 mm i.d., 0.8 mm o.d., Harvard Apparatus, Holliston, MA, USA) in the left jugular vein. The rats received an overnight recovery with free access to food and water. […] For the pharmacokinetic study, after the drug administration, blood samples were collected from the catheter at appropriate time intervals (2, 5, 10, 15, 20, 30, 45, 60, and 90 min). After each collection, 0.2 mL of saline containing 25 IU heparin was injected to compensate for the blood loss. Plasma was collected after centrifugation at 8000 rcf for 3.5 min and stored at −80°C until analysis. For brain uptake study, at 20 min, the rat was anesthetized and perfused by 500 mL saline, and the whole brain was collected. The brain was wiped by tissue paper to remove excess water, meninges and blood vessels followed by storage at −80 °C until analysis.
Aliquot of plasma sample (80 μL) was mixed with 160 μL acetonitrile. The mixture was vortexed for 1 min and followed by centrifugation at 13000 rcf for 10 min. The supernatant was collect and subjected to LC/MS/MS analysis.
Agilent 6430 Triple Quadrupole LC/MS/MS system (Agilent Technologies, CA, USA) was employed for the analysis. For analysis of P3V8, chromatographic separation was achieved on a SunFire C8 Column (250 mm × 4.6 mm, 5 µm). The mobile phase of water containing 0.2% formic acid (A) and acetonitrile (B) was used with a gradient elution (0–5 min, 20–70% B). The flow rate was 0.8 mL/min. Multiple reactions monitoring (MRM) with fragmentation transition of 500 to 129 in positive ion mode was employed for quantization of P3V8. […] Mobile phase of water (A) and acetonitrile (B) was used. The gradient elution for plasma samples was 0–4 min, 30–95% B, and for brain samples was 0–9 min, 10–95% B. The flow rate was 0.8 mL/min.
Plasma concentration verse time profiles were analyzed by WinNonlin (Pharsight Corporation, Mountain View, CA, USA, Version 2.1) to obtain the pharmacokinetics parameters. Other data were analyzed by one-way ANOVA followed by post hoc Tukey test or unpaired t-test. “*”, “**”, “***” and “****” represent P < 0.05, P < 0.01, P < 0.001 and P < 0.0001 respectively, which are considered statistically significant.

[6] = male, Sprague-Dawley, rat plasma, 500 ng/mL, 37 °C, incubation 1 hr, LC/MS/MS, mean ± S.E.M. of 5, read-out: Percentage of remained
[7] = male, Sprague-Dawley, rat plasma, 1000 ng/mL, 37 °C, incubation 3 hr, LC/MS/MS, mean ± S.E.M. of 5, read-out: Percentage of remained
[8] = rat plasma, 2000 ng/mL, 37 °C, 100 rpm, incubation 1 hr, LC/MS/MS, mean ± S.E.M. of 5 independent experiments
[9] = male, Sprague-Dawley, rat, tissue homogenate, read-out: Percentage of remained
[10] = SD rats, intranasal, 3 μmol/kg, pre-treated with 0.5% chitosan, mean ± S.E.M. of 6
[11] = SD rats, intranasal, 3 μmol/kg, pre-treated with 0.5% chitosan, plasma, mean ± S.E.M. of 6
[12] = Sprague-Dawley, rat, in vivo, iv, 3 μmol/kg
[13] = Sprague-Dawley, rat, plasma, iv, 3 μmol/kg

CCCCCCCCCCCCCCCC(=O)N[C@@H](CC(=O)O)C(=O)NCC(=O)N[C@@H](CCCCN)C(=O)N[C@@H](CO)C(=O)N[C@@H](CCCCN)C(=O)NCC(=O)N[C@H](C(=O)N[C@@H](C)C(=O)N[C@@H](Cc1ccc(O)cc1)C(=O)N[C@H](C(=O)N[C@@H](CCC(=O)O)C(=O)N[C@@H](Cc1ccccc1)C(=O)N[C@@H](CCCCN)C(N)=O)[C@@H](C)CC)[C@@H](C)CC [L1P3V8] (Palmitoyl-DGKSKGIAYIEFK-NH2)
IC50 ([1]; read-out: IC50, inhibition of cell death (LDH enzyme activity reduced by 50%), peptide added without DeliverX immediately after plasmid transfection, LDH 72 hr after treatment, mean ± S.E.M., at least 3 experiments): ~100 nM
cytotoxicity (LDH release) [2]: no cytotoxicity; also recorded: no cytotoxic effects
remaining at 3 h, 2000 ng/mL ([3]; male, Sprague-Dawley, plasma, read-out: Percentage of remained): 86.9 ± 5.5%
remaining at 1 h, 500 ng/mL [3, 6]: 88.1 ± 4.9%
remaining at 3 h, 500 ng/mL ([3]; male, Sprague-Dawley, rat plasma, 500 ng/mL, 37 °C, incubation 3 hr, LC/MS/MS, mean ± S.E.M. of 5, read-out: Percentage of remained): 73.8 ± 5.7%
remaining at 3 h, 1000 ng/mL [3, 7]: 81.2 ± 1.5%
remaining at 1 h, 2000 ng/mL ([3]; male, Sprague-Dawley, rat plasma, 2000 ng/mL, 37 °C, 100 rpm, incubation 1 hr, LC/MS/MS, mean ± S.E.M. of 5 independent experiments, read-out: Percentage of remained): 98.8 ± 5%
Percentage of remained ([3]; rat plasma, 1000 ng/mL, 37 °C, incubation 1 hr, LC/MS/MS, mean ± S.E.M. of 5): 98.7 ± 3.9 %
Percentage of remained [3, 8]: nearly all L1P3V8 remained intact
remaining at 1 h, 500 ng/mL [4, 9]: < 20%
remaining at 3 h, 500 ng/mL [4, 9]: < 20%
remaining at 1 h, 1000 ng/mL ([4]; male, Sprague-Dawley, tissue homogenate, rat brain homogenate, 37 °C, LC/MS/MS, mean ± S.E.M. of 5, read-out: Percentage of remained): 22.8 ± 1.2%
remaining at 3 h, 1000 ng/mL ([4]; male, Sprague-Dawley, tissue homogenate, rat brain homogenate, 37 °C, incubation 3 hr, LC/MS/MS, mean ± S.E.M. of 5, LLOQ 12.5 ng/mL P3V8, read-out: Percentage of remained): 15.8 ± 0.7%
remaining at 1 h, 2000 ng/mL ([4]; male, Sprague-Dawley, tissue homogenate, rat brain homogenate, 2000 ng/mL, 37 °C, LC/MS/MS, mean ± S.E.M. of 5, read-out: Percentage of remained): 45 ± 3.5%
remaining at 3 h, 2000 ng/mL ([4]; male, Sprague-Dawley, tissue homogenate, rat brain homogenate, 2000 ng/mL, 37 °C, incubation 3 hr, LC/MS/MS, mean ± S.E.M. of 5, LLOQ 12.5 ng/mL P3V8, read-out: Percentage of remained): 21.2 ± 3%
AUC0-last [5, 10]: 2277 ± 558^*** min * nmol/L
T1/2 [5, 10]: 37 ± 5 min
Tmax [5, 10]: 18 ± 1 min
Cmax [5, 11]: 74 ± 13^*** nmol/L
level at time molar at 1.5 h ([5]; Sprague-Dawley, rat, in vivo, iv, 3 umol/kg): 190 nM
AUC(0-t) [5, 12]: 2.99 µM·h
Cmax [5, 12]: 10400 ± 1220 nM
Tmax [5, 12]: 2 min
half-life [5, 12]: 17 ± 4 min

Ac-DGKSKGIAYIEFK-NH2 [P3V8]
suppression of expanded CAG RNA-induced cell death ([1]; peptide alone, without DeliverX): did not exert any cellular effect
suppression of expanded CAG RNA-induced cell death ([1]; peptide transfected with DeliverX 4 hr after plasmid transfection): could effectively alleviate the cytotoxicity
cytotoxicity (LDH release) [2]: no cytotoxicity; also recorded: no significant cell death
remaining at 3 h, 2000 ng/mL ([3]; male, Sprague-Dawley, rat plasma, read-out: Percentage of remained): < 0.6%
remaining at 1 h, 500 ng/mL [3, 6]: < 2.5%
remaining at 1 h, 1000 ng/mL ([3]; male, Sprague-Dawley, rat plasma, 1000 ng/mL, 37 °C, incubation 1 hr, LC/MS/MS, mean ± S.E.M. of 5, read-out: Percentage of remained): 8.6 ± 0.5%
remaining at 3 h, 1000 ng/mL [3, 7]: < 1.3%
Percentage of remained [3, 8]: 20.7 ± 3.3%
Percentage of remained ([3]; rat plasma, 2000 ng/mL, 37 °C, 100 rpm, incubation 3 hr, LC/MS/MS, mean ± S.E.M. of 5, LLOQ 12.5 ng/mL P3V8, 100 ng/mL L1P3V8): almost completely degraded
remaining at 1 h, 500 ng/mL ([4]; male, Sprague-Dawley, rat, rat brain homogenate, read-out: Percentage of remained): < 2.5%
remaining at 1 h, 1000 ng/mL ([4]; male, Sprague-Dawley, rat brain homogenate, 37 °C, LC/MS/MS, mean ± S.E.M. of 5, read-out: Percentage of remained): 4 ± 1.6%
remaining at 3 h, 1000 ng/mL ([4]; male, Sprague-Dawley, rat brain homogenate, 37 °C, incubation 3 hr, LC/MS/MS, mean ± S.E.M. of 5, LLOQ 12.5 ng/mL P3V8, read-out: Percentage of remained): < 1.3%
remaining at 1 h, 2000 ng/mL ([4]; male, Sprague-Dawley, rat brain homogenate, 2000 ng/mL, 37 °C, LC/MS/MS, mean ± S.E.M. of 5, read-out: Percentage of remained): 3.3 ± 0.6%
remaining at 3 h, 2000 ng/mL ([4]; male, Sprague-Dawley, rat brain homogenate, 2000 ng/mL, 37 °C, incubation 3 hr, LC/MS/MS, mean ± S.E.M. of 5, LLOQ 12.5 ng/mL P3V8, read-out: Percentage of remained): < 0.6%
Percentage of remained ([4]; rat brain homogenate, 2000 ng/mL, 37 °C, incubation 3 hr, LC/MS/MS, mean ± S.E.M. of 5, LLOQ 12.5 ng/mL P3V8): almost completely degraded
AUC0-last [5, 10]: 85 ± 32 nmol·min/L
Tmax [5, 10]: 15 min and 15 ± 4 min
Cmax [5, 11]: 12 ± 2 nM
Tmax ([5]; Sprague-Dawley, rat, plasma, iv, 3 umol/kg): 2 min
AUC(0-t) [5, 13]: 0.0202 µM·h
Cmax [5, 13]: 452 ± 22 nM
